Laboratory results as given in ChEMBL document CHEMBL1201862, “PubChem BioAssay data set” (2004).
Activity calls are given as the source filed them.

What was measured:
[1] = target: FAD-linked sulfhydryl oxidase ALR (Homo sapiens, UniProt P55789); assay: ALR-catalysed DTT oxidation blockers – biochemical, H2O2 detection, luminescence, cherry-pick, dose response (AID 493248)
Large T antigen = Large T antigen (Simian virus 40, UniProt P03070); assay type: functional, Betapolyomavirus macacae;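 also: Confirmatory-stage PubChem screen for compounds that inhibit SV40 T antigen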
Sequence of Large T antigen (P03070 whole entry): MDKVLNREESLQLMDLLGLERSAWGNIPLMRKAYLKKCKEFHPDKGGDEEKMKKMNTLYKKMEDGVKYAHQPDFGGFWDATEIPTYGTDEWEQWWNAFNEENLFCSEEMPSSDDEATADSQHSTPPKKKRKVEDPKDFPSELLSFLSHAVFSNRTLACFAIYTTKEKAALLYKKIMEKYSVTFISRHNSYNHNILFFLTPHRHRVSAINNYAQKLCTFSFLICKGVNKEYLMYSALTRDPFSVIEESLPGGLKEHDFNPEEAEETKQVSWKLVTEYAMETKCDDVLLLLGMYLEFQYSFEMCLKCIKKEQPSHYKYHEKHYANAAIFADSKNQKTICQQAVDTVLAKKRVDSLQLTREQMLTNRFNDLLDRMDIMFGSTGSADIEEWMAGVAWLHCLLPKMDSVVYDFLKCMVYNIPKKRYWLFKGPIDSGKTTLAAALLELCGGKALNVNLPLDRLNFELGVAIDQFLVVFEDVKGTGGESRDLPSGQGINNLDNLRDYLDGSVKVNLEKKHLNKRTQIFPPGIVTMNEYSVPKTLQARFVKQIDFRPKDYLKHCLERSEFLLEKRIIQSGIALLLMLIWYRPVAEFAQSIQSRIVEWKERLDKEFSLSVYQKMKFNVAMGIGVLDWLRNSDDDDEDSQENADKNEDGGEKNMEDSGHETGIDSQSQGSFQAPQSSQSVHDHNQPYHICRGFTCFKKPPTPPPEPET

Paired box protein Pax-8 = Paired box protein Pax-8 (Homo sapiens, UniProt Q06710); assay: PAX8 transcriptional activity inhibition in RMG-I – RMG-I cells, luciferase, cherry-pick, dose response (AID 687027); assay type: functional, cell-based;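 also: luciferase reporter driven by Pax8 target thyroperoxidase promoter measured by SteadyGlo luminescence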
Sequence of Paired box protein Pax-8 (Q06710 whole entry): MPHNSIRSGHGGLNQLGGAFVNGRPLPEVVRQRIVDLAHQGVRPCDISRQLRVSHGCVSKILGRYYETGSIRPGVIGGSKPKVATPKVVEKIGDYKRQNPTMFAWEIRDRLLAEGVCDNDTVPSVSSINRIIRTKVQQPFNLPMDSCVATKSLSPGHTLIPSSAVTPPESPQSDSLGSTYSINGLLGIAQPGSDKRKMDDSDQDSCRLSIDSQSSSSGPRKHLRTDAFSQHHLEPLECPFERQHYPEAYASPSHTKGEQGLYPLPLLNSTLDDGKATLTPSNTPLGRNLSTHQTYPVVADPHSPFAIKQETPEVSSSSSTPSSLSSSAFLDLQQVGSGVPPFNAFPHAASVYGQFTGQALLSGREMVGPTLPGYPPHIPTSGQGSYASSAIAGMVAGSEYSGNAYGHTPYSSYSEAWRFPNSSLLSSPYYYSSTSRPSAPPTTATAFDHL

Aminopeptidase N = target: T1, Aminopeptidase N (Plasmodium falciparum FcB1/Columbia, UniProt O96935); assay: malaria alanyl aminopeptidase activity blockers – biochemical, fluorogenic H-Leu-NHMec substrate, 1536-well (AID 1445); design: species or system Plasmodium falciparum 3D7, 3D7
T1 sequence (O96935 whole entry): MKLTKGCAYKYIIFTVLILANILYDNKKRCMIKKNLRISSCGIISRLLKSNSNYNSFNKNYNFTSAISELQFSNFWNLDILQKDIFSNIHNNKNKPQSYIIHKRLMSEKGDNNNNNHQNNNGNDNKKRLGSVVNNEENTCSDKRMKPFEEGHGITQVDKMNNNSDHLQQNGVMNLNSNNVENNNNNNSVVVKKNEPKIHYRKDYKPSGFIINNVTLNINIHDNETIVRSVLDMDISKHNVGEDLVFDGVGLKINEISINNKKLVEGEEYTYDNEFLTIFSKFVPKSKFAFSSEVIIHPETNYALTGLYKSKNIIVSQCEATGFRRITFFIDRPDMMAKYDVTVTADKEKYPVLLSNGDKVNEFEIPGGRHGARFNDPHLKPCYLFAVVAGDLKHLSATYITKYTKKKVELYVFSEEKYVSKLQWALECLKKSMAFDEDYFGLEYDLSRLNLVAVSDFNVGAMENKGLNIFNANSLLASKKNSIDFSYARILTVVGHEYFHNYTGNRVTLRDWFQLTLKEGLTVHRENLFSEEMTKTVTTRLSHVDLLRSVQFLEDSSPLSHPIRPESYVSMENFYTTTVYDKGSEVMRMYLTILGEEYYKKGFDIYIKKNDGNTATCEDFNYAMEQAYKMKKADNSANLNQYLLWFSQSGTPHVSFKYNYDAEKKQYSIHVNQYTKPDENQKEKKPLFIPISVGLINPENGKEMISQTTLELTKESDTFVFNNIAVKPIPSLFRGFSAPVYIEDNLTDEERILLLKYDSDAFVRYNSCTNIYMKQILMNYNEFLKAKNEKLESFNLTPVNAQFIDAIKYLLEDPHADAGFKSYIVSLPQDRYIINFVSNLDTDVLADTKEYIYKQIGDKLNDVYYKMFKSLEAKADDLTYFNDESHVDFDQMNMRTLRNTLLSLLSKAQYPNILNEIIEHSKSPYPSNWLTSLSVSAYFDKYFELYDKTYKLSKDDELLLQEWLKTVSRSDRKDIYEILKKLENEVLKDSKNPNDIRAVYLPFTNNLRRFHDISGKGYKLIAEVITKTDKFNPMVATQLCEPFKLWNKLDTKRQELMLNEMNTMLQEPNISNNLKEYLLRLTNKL

Leucine aminopeptidase = target: T2, Leucine aminopeptidase (Plasmodium falciparum 3D7, UniProt Q8IL11); assay: P. falciparum M17LAP inhibitors, primary screen, biochemical, fluorogenic H-Leu-NHMec substrate, 1536-well (AID 1619); assay type: functional
T2 sequence (Q8IL11 whole entry): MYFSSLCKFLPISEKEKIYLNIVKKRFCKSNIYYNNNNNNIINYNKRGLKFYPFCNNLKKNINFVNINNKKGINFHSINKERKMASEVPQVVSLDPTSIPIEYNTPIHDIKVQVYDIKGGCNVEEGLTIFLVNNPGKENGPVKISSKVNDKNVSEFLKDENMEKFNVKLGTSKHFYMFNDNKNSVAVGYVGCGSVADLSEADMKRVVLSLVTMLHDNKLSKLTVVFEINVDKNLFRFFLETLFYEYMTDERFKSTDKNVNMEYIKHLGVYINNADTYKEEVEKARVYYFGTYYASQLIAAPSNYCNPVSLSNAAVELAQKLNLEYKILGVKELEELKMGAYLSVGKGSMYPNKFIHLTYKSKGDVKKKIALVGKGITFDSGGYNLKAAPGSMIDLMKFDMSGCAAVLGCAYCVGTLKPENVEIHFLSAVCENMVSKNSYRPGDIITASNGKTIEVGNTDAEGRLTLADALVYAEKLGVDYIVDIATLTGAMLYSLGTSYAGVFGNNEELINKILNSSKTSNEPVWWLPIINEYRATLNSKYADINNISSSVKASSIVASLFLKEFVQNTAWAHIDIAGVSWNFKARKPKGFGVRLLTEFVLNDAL

[2] = target: T3, Heat shock factor protein 1 (Mus musculus, UniProt P38532); assay: enhancement of HSF1-driven luciferase signal – cell-based, NIH3T3, luminescence, dose retest, confirmation (AID 435004); assay type: functional;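 also: stress induced by proteasome inhibitor MG132 added 30 min after compound; luciferase reporter driven by HSF1 response element in NIH3T3 cells; actives raise luminescence as potentiators of the MG132 stress response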
T3 sequence (P38532 whole entry): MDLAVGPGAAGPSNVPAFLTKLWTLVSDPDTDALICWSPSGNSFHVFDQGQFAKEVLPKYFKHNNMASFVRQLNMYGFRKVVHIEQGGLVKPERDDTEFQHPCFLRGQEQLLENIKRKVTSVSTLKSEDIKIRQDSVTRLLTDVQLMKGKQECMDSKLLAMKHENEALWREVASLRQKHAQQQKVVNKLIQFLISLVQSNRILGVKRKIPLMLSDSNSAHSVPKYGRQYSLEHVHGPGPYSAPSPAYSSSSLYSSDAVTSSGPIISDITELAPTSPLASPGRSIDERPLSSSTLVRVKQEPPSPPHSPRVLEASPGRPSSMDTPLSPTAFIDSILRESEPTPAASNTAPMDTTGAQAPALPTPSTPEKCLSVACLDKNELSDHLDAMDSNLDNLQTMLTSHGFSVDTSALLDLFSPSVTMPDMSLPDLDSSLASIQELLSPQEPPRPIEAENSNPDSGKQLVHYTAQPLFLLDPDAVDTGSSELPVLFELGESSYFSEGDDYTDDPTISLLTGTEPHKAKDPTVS

[3] = HIV-1 AD8 envelope cell-cell fusion blockers – cherry-pick, dose response (AID 652062); assay type: functional, cell-based;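 also: luciferase signal from cell-cell fusion driven by HIV-1 clade B AD8 Env; potency is for inhibitors of fusion seen as a drop in luminescence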
[4] = blockers of HIV-1 ZM109 envelope-driven cell-cell fusion – HeLa effector, CEM target cells, luciferase, cherry-pick, dose response (AID 652058); assay type: functional, cell-based;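 also: luciferase signal from HIV-1 Env mediated cell-cell fusion of effector and target cells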
[5] = microbe, parasite or virus in culture; assay type: functional; conditions: Mycobacterium tuberculosis
Protein RecA = target: T4, Protein RecA (Mycobacterium tuberculosis, UniProt P9WHJ3); assay: Fluorescence Cell-Free Homogeneous Dose Retest to Identify Inhibitors of RecA-Intein Splicing Activity. [Related pubchem assays (depositor defined):AID2097, AID2223, AID489010, AID492950]; assay type: functional
T4 sequence (P9WHJ3 whole entry): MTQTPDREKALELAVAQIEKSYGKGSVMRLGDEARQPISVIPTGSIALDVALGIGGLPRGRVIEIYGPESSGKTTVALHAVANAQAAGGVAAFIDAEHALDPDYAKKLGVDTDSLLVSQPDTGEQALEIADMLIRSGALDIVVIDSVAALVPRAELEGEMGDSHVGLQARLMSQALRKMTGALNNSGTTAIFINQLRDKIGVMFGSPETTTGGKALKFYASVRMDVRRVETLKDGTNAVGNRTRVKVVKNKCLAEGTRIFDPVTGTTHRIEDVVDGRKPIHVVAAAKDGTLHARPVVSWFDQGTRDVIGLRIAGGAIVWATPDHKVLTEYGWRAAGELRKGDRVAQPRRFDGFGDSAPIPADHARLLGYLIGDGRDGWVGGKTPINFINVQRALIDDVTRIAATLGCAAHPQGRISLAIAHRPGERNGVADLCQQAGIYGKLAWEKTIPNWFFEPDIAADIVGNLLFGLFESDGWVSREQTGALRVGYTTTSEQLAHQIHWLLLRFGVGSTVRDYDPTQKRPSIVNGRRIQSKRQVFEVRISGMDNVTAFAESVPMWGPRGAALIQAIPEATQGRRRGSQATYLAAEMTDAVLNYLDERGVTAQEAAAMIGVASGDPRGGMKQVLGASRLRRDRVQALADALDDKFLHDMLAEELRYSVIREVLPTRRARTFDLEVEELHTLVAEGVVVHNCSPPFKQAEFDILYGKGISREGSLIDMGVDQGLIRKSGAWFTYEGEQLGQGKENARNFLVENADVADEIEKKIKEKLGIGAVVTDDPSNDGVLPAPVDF

[6] = target: T5, Replicative DNA helicase DnaB (Mycobacterium tuberculosis, UniProt P9WMR3); assay: DnaB intein splicing inhibitors, dose response, biochemical, cell-free fluorescence (AID 449749); assay type: functional
T5 sequence (P9WMR3 whole entry): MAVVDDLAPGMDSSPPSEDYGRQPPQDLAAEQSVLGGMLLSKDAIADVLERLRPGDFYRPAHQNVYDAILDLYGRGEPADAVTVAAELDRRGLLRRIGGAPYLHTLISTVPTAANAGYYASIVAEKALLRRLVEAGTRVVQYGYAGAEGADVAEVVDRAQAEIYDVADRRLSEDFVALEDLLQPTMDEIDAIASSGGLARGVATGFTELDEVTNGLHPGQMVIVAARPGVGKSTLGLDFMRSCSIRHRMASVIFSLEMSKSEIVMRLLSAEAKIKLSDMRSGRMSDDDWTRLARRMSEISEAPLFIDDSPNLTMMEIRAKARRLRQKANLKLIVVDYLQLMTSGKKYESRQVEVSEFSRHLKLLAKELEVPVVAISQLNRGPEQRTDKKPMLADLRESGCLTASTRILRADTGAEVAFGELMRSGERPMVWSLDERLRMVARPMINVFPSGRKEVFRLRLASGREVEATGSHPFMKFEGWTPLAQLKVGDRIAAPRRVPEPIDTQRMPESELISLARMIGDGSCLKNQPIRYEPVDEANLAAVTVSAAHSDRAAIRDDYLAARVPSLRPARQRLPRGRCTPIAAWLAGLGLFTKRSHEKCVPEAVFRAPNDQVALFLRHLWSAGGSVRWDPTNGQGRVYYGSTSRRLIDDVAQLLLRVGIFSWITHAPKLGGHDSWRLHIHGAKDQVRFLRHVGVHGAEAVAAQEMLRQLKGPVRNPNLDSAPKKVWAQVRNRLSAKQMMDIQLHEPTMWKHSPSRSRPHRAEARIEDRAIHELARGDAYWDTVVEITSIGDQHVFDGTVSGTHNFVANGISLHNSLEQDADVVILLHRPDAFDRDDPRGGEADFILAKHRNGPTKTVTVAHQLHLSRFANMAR

[7] = tested on: Streptococcus sp. 'group A'; assay: Streptococcus pyogenes SK(-)GAS viability under kanamycin – luminescence, BacTiterGlo, confirmation, counter-screen for streptokinase expression inhibitor project, dose response (AID 1900); assay type: functional, organism-based
Streptococcus = assay: GAS UMAA2166 growth inhibition – luminescence, BacTiterGlo, counter-screen for streptokinase expression inhibitor project, dose response (AID 1915); assay type: functional, organism-based;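 also: potency for reduction of bacterial viability or growth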
cells = assay type: functional
INS1 = assay: INS-1E survival protection against cytokine death – cell-based, luminescence, retest, dose response (AID 449756); assay type: functional; conditions: Rattus norvegicus;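 also: cell death triggered by IL-1 beta plus TNF-alpha plus IFN-gamma mixture; protective hits raise ATP signal compared with cytokine alone wells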
[8] = reduction of Shn3 3'UTR-driven luciferase in osteoblasts – cell-based, Clone20 osteoblasts, firefly luciferase, cherry-picked, dose response (AID 624132); assay type: functional;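 also: firefly luciferase luminescence from reporter carrying the Shn3 3'UTR in osteoblasts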
[9] = non-specific 3'UTR reporter inhibition in Clone20-Shn3RL – cell-based, Renilla luciferase, cherry-picked, counter-screen for Shn3 inhibitor project, dose response (AID 624133); assay type: functional
SN12K1 = assay: cells; assay type: functional; conditions: Homo sapiens
P388 = assay: cells; assay type: functional; conditions: Mus musculus;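 also: compound exposure lasted 48 hours before growth was measured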

Sequence of FAD-linked sulfhydryl oxidase ALR (P55789 whole entry): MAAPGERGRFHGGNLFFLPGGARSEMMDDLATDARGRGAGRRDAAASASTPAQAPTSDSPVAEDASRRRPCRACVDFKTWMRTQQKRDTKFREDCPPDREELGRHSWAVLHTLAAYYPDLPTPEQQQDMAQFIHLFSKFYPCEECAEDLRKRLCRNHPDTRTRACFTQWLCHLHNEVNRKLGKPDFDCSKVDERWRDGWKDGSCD

COc1cccc(N2CCN(C(=O)C3CCCN(S(=O)(=O)c4c[nH]cn4)C3)CC2)c1 (stereo not drawn)
AC50 [1]: 16.8 µM (active)

O=C(NNc1c2ccccc2nc2ccccc12)c1cccc(O)c1
AC50 [1]: 0.738 µM (active)

Nc1ccc(Sc2ccccc2CC(=O)O)cc1
IC50 (Large T antigen): > 100 µM (active)

Cc1ccnc(NC(c2ccccn2)c2c(C)[nH]c3ccccc23)c1 (stereo not drawn)
AC50 [1]: 1.39 µM (active)

COc1ccc(C(=O)c2ccc(Cl)c([N+](=O)[O-])c2)cc1
AC50 (Paired box protein Pax-8): 7.17 µM (active) | AC50 [1]: 3.95 µM (active)

COc1cc(/C=C2\SC(=S)N(NS(=O)(=O)c3ccccc3)C2=O)ccc1O
IC50 (Aminopeptidase N): 24.5 µM (active) | IC50 (Leucine aminopeptidase): 38.8 µM (active) | IC50 (Large T antigen): 14.5 µM (active)

Oc1ccc(-c2nc3cnccn3c2Nc2ccc3c(c2)OCCO3)cc1
IC50 (Large T antigen): 4.14 µM (active) | EC50 [2]: 11 µM (active)

CC(C)CNS(=O)(=O)c1ccc(CCC(=O)N2CCN(Cc3ccc4c(c3)OCO4)CC2)cc1
AC50 [3]: 27.2 µM (active) | AC50 [4]: 12.1 µM (active)

Cc1cc(C(=O)CCl)c(C)n1CCc1ccc(Cl)cc1
CC50 [5]: 2.48 µM (active) | EC50 (Protein RecA): 7.32 µM (active) | EC50 [2]: > 260 µM (inconclusive) | AC50 [6]: 8.7 µM (active)

COc1ccc2[nH]c3ccc(OC)cc3c2c1
AC50 [1]: 8.33 µM (active)

Cc1ccc2nccc(C(=O)N3CCCC(Nc4ccc(F)cc4)C3)c2c1 (stereo not drawn)
AC50 [1]: 3.03 µM (active)

CN1CCCNc2nc3ccccc3nc21
AC50 [1]: 9.27 µM (active)

O=C(Nc1nnc(-c2ccc3c(c2)CCCC3)o1)c1c(F)cccc1F
EC50 [7]: 1.77 µM (active) | EC50 (Streptococcus): 7.35 µM (active) | IC50 (cells): 4.08 µM (active) | AC50 [1]: 7.99 µM (active)

Clc1ccc(-c2cc(-c3nnc4n3CCCCC4)c3ccccc3n2)cc1
AC50 (INS1): 6.17 µM (active) | AC50 [8]: 5.59 µM (active) | AC50 [9]: 11.1 µM (active)

Cc1noc(C)c1C(=O)Nc1ccc(N(C)C)cc1
AC50 [1]: 1.3 µM (active)

CCCCCOc1ccc(/C=N\c2ccc(-c3ccc(/N=C\c4ccc(OCCCCC)cc4)c(OC)c3)cc2OC)cc1
GI50 (SN12K1): > 100 µM (inactive) | GI50 (P388): > 100 µM (inactive)

CC(=O)Nc1ccc(/C=C/c2ccc(NC(=O)Nc3ccc(/C=C/c4ccc(NC(C)=O)cc4S(=O)(=O)O)c(S(=O)(=O)O)c3)cc2S(=O)(=O)O)c(S(=O)(=O)O)c1
GI50 (SN12K1): > 100 µM (inactive) | GI50 (P388): > 100 µM (inactive)

COc1ccc(CC(=O)N/N=C(\C)CC(=O)Nc2ccc(N(C)C)cc2)cc1OC
IC50 (Large T antigen): 10.1 µM (active)
